The test system of experiment [1] is conjugation pair E. coli APEC-02 to E. coli HS-4 (plasmid pAPEC-02-211A-ColV, IncF). Format: cell-based.
The test system of experiment [2] is conjugation pair E. coli APEC-02 to E. coli HS-4 in chicken ceca explants. Format: cell-based. How it is done: Ex vivo ceca explants serve as models for bacterial host interactions. Plasmid transfer and its inhibition by SCFAs were tested using chicken ceca explants to mimic in vivo conditions. Chicken ceca explants were harvested from 2 week-old chickens, cultured in vitro, and used in co-culture with donors/recipients in the presence or absence of SCFAs.

In experiment [3] the test system is conjugation pairs S. Kentucky CVM29188 to E. coli HS-4 and E. coli APEC-02 to E. coli HS-4. The settings on record: for reduction of donor and recipient strains / transconjugant populations: physiological concentrations of SCFAs in the chicken gut, both conjugation pairs.
Procedure: Physiological concentrations of SCFAs in the chicken gut were added to broth conjugations with the conjugation pairs 1) S. Kentucky CVM29188 to E. coli HS-4, and 2) E. coli APEC-02 to E. coli HS-4 (FIG. 3).
In experiment [4] the test system is transfer of conjugative plasmid pCVM29188_146 (IncF) between E. coli MG1655 (pCVM29188_146) and E. coli HS-4. In words: In vitro broth conjugation with propionate at fly media concentrations. Format: cell-based. The settings on record: as low as half the concentrations of standard Drosophila fly media.
[5] abbreviates: broth conjugation, varying molar concentrations between 0 and 1 molar (FIG. 4).
[6] abbreviates: 25 mM, each SCFA used individually, ceca explants from 2 week-old chickens.

Where two headings read alike, the source gives them in different places.

For `CC(=O)O` [acetic acid], the transconjugant populations result in experiment [1] and in experiment [3] was “significantly reduced” each time. In addition, the “efficacy in inhibition of plasmid transfer” value (shortened to “efficacy in inhibition”) in experiment [2] was “showed efficacy”. In addition, the “reduction of donor and recipient strains” value in experiment [3] is given as “not”.

For the molecule `CCCC(=O)O` [butyric acid, butyric (butanoic) acid], the transconjugant populations result in experiment [1] (setting [5]) is reported as “significantly reduced”. The “efficacy in inhibition” value in experiment [2] (setting [6]) is “showed efficacy”. In addition, in experiment [3], the “reduction of donor and recipient strains” value is “not”; the transconjugant populations result is “significantly reduced”.

As to `O=CO` [formic acid], in experiment [1], the transconjugant populations result is reported as “significantly reduced”. Besides, the “efficacy in inhibition” value in experiment [2] is on record as “showed efficacy”.

Take `CC(C)C(=O)O` [isobutyric acid, isobutyric (2-methylbutanoic) acid]: the transconjugant populations entry in experiment [1] (setting [5]) is reported as “significantly reduced”. For the same molecule, the “efficacy in inhibition” value in experiment [2] (setting [6]) is on record as “showed efficacy”.

With `CC(C)CC(=O)O` [isovaleric acid, isovaleric (3-methylbutanoic)], the transconjugant populations result in experiment [1] (setting [5]) is “significantly reduced”. Moreover, the “efficacy in inhibition” value in experiment [2] (setting [6]) was “showed efficacy”.

As to `CCC(=O)O` [propionic acid], in experiment [1] (setting [5]), the transconjugant populations entry is recorded as “significantly reduced”. The “efficacy in inhibition” value in experiment [2] (setting [6]) was “showed efficacy”. The conjugation entry in experiment [3] (physiological concentrations of propionate in the chicken gut) was “did not significantly reduce”. The “conjugation frequency (transconjugants divided by donors)” value in experiment [4] is on record as “significant decreases”.

On to `CCCCC(=O)O` [valeric acid, valeric (pentanoic) acid], for which, in experiment [1] (setting [5]), the transconjugant populations result is listed as “significantly reduced”. Also, in experiment [2] (setting [6]), the “efficacy in inhibition” value is “showed efficacy”.

For the origin of these results see US20230149483A1, “SHORT-CHAIN FATTY ACID USE TO MITIGATE ANT[…] VIRULENCE GENE TRANSFER IN THE GUT” (Iowa State University Research Foundation, Inc., priority 2021, published 2023).
